From patent publication US9668979B2, “Piperaquine microcapsules and compositions containing them” (ADARE PHARMACEUTICALS S.R.L., priority 2013, dated 2017)

Test: Compatibility of piperaquine with the coacervation process (heating/cooling cycles; assay, Karl Fischer, XRPD)
Assay type: physicochemical
Conditions: heating/cooling cycles mimicking the process
Protocol: Water content: Karl Fischer titration: Ph. Eur. 2.5.12 Method; following sample titration conditions are applied: sample solvent: methanol: formamide 1:1; sample weight: 50 mg; the value of water content in a sample is expressed as % w/w. X-Ray Powder Diffraction (XRPD) measurements are performed on a Philips X′Pert PRO diffractometer (Bragg-Brentano geometry). A compatibility study is carried out on piperaquine to assess the compatibility of the drug with the coacervation process. In particular, piperaquine undergoes heating/cooling cycles mimicking thermal excursions of the process. Then, the following tests are performed both before and after thermal cycles to ascertain the stability of piperaquine: water content analysis (Karl Fisher test); effect of mechanical stress; crystalline structure by XRPD.

- Effect of heating/cooling cycle on the drug: not affected by heating/cooling cycle
SMILES: Clc1ccc2c(N3CCN(CCCN4CCN(c5ccnc6cc(Cl)ccc56)CC4)CC3)ccnc2c1 [PQP•4H2O, 4,4′-(1,3-propanediyldi-4,1-piperazinediyl) bis(7-chloroquinoline) phosphate hydrate (1:4:4)]
